In PubChem BioAssay AID2060363 (Molecular Pharmacology Branch, DTP, NCI, 2025):
Where “and” joins values, the source holds several entries; their conditions need not be identical. Identical values can stand only once.

Test system: 156681-154-R-J1-PDC tumor spheroids, viability % test/control
Assay: Anticancer human tumor 156681-154-R-J1-PDC patient-derived melanoma cell line growth inhibition [TAK]
Conditions: spheroids with HUVEC and MSC; for viability, T/C: stronger effect = lower value
Description: Combinatorial screen of targeted agents with TAK-243 and ipatasertib in multi-cell type tumor spheroids
A high-throughput screen of multi-cell type tumor spheroids was designed to identify active combinations of targeted small molecules and TAK-243 or ipatasertib. Complex spheroids include a stromal component modeled by human endothelial cells (HUVEC) and fibroblasts modeled by human mesenchymal stem cells (MSCs). The concentration ranges selected for each drug and investigational agent were based upon clinically achievable concentrations if the clinical Cmax of the agent was known.
Compounds. The drugs and investigational agents: TAK-243 (785004), ipatasertib (767898), everolimus (733504), selumetinib (741078), bortezomib (756655), trametinib (758246), ixazomib (758254), vemurafenib (761431), dabrafenib (764134), sapanisertib (764658), alpelisib (765974), and copanlisib (816437), were obtained from the National Cancer Institute (NCI) Developmental Therapeutics Program Chemical Repository. The FDA-approved anticancer drug set is available from the NCI Developmental Therapeutics Program. […] The stock solutions were prepared in dimethyl sulfoxide (DMSO, Sigma-Aldrich, St. Louis, MO, cat. D2650) at 800-fold the tested concentration and stored at -70 degrees C prior to their use. All drugs and investigational agents were tested over a range starting from a high concentration at or near the clinical Cmax and decreasing in half-log increments. If the clinical Cmax for an agent had not been determined, the highest concentration tested was 10 microM.
NCI60 Cell Culture. NCI60 cell lines were obtained from the NCI Developmental Therapeutics Program Tumor Repository. For each lot of cells, the Repository performed Applied Biosystems AmpFLSTR Identifiler testing with PCR amplification to confirm consistency with the published Identifier STR profile for each cell line. Cells were kept in continuous culture for no more than 20 passages. The optimal seeding densities for each of the cell lines at each time point assessed were determined prior to performing the concentration response studies. Briefly, the NCI60 human tumor lines were grown as monolayers in RPMI 1640 medium supplemented with 10% FBS and 2 mmol/L L-glutamine.
An additional 2 lines were from the NCI60 cell line panel including melanomas, MALME-3M and SK-MEL-2. Pooled donor human umbilical vein endothelial cells (HUVEC, Lonza, cat. CC-2519) and human mesenchymal stem cells (hMSC, Lonza, cat. PT-2501) were purchased from Lonza (Walkersville, MD).
PDMR cell lines were grown in complete medium (DC medium): Dulbecco's modified Eagle's medium (DMEM)/F12 supplemented with 5% fetal bovine serum (FBS), 2 mM L-glutamine, 100 U/mL penicillin and 100 µg/ml streptomycin, 0.4 µg/ml hydrocortisone, 10 ng/ml epidermal growth factor (EGF) recombinant human protein, 24 µg/mL adenine, and 0.1 mg/mL primocin. During culture from frozen stock vials, PDMR cells were cultured in the same medium containing 10 µM Y-27632 (see Table 3). The PDCs were cultured in complete DMEM/F12 media without 10 microM Y-27632 dihydrochloride for at least two passages prior to the screen. The pooled donor HUVEC and hMSC were cultured in endothelial cell growth medium 2 (PromoCell, Heidelberg, Germany, cat. C-22011) and mesenchymal stem cell growth medium 2 (PromoCell, cat. C-28009), respectively. For all experiments, HUVEC and hMSC were used at passages </=5.
For the pre-screen, cell seeding densities were determined from a titration spanning the range from 5,000 to 313 cells per well. The mct-spheroids including 60% malignant cells, 25% HUVEC and 15% MSC dispensed as a mixture into U-bottom Ultra-Low Attachment 384-well plates (Corning, NY)
High-throughput Drug Combination Screening.
Prior to their inoculation into 384-well plates, malignant cells, HUVEC, and hMSC were removed from T flasks using TrypLE express (Thermo Fisher Scientific, cat. 12605036) and harvested by centrifugation for 5 min at 233 x g. […]
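Also: spheroids exposed to compounds for 7 days before the endpoint.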

In the case of `CC(C)CC(NC(=O)C(Cc1ccccc1)NC(=O)c1cnccn1)B(O)O` (centres undefined) + CC(C)NCC(C(=O)N1CCN(c2ncnc3c2C(C)CC3O)CC1)c1ccc(Cl)cc1, the IC50 (curve of first compound, second compound 0.3 µM) is reported as 2.09 nM, the IC50 (curve of first compound, second compound 0.949 µM) is reported as 1.76 nM and the IC50 (curve of first compound, second compound 3 µM) is reported as 1.44 nM. For the same molecule, the IC50 (curve of first compound, second compound 9.49 µM) was < 0.0316 nM, the IC50 (curve of first compound, second compound 30 µM) was < 0.0316 nM and the viability, T/C (second compound 0.3 µM, first compound 31.6 pM) was 98.5%. The viability, T/C (second compound 0.3 µM, first compound 0.0001 µM) was 97%, the viability, T/C (second compound 0.3 µM, first compound 0.000316 µM) was 91.9% and the viability, T/C (second compound 0.3 µM, first compound 0.001 µM) was 97.3%. The viability, T/C (second compound 0.3 µM, first compound 0.00316 µM) was 23.9%, the viability, T/C (second compound 0.3 µM, first compound 0.01 µM) was 0.32% and the viability, T/C (second compound 0.949 µM, first compound 31.6 pM) was 85.2%. For the same molecule, the viability, T/C (second compound 0.949 µM, first compound 0.0001 µM) was 87.4%, the viability, T/C (second compound 0.949 µM, first compound 0.000316 µM) was 91% and the viability, T/C (second compound 0.949 µM, first compound 0.001 µM) was 90.1%. It also gave a viability, T/C (second compound 0.949 µM, first compound 0.00316 µM) of 9.77%, a viability, T/C (second compound 0.949 µM, first compound 0.01 µM) of 0.19% and a viability, T/C (second compound 3 µM, first compound 31.6 pM) of 63.9%. For the same molecule, the viability, T/C (second compound 3 µM, first compound 0.0001 µM) was 67.6%, the viability, T/C (second compound 3 µM, first compound 0.000316 µM) was 66% and the viability, T/C (second compound 3 µM, first compound 0.001 µM) was 66.7%. For the same molecule, the viability, T/C (second compound 3 µM, first compound 0.00316 µM) was 15.7%, the viability, T/C (second compound 3 µM, first compound 0.01 µM) was 0.22% and the viability, T/C (second compound 9.49 µM, first compound 31.6 pM) was 40.6%. The viability, T/C (second compound 9.49 µM, first compound 0.0001 µM) was 39%, the viability, T/C (second compound 9.49 µM, first compound 0.000316 µM) was 37.8% and the viability, T/C (second compound 9.49 µM, first compound 0.001 µM) was 37.6%. For the same molecule, the viability, T/C (second compound 9.49 µM, first compound 0.00316 µM) was 7.12%, the viability, T/C (second compound 9.49 µM, first compound 0.01 µM) was 0.21% and the viability, T/C (second compound 30 µM, first compound 31.6 pM) was 17.8%. It also gave a viability, T/C (second compound 30 µM, first compound 0.0001 µM) of 18.6%, a viability, T/C (second compound 30 µM, first compound 0.000316 µM) of 16.9% and a viability, T/C (second compound 30 µM, first compound 0.001 µM) of 17.3%. The viability, T/C (second compound 30 µM, first compound 0.00316 µM) was 1.86% and the viability, T/C (second compound 30 µM, first compound 0.01 µM) was 0.31%.

In the case of `CC(C)NCC(C(=O)N1CCN(c2ncnc3c2C(C)CC3O)CC1)c1ccc(Cl)cc1` (centres undefined), the viability, T/C (compound 0.3 µM) is reported as 99.2% [middle of 10 runs], the viability, T/C (compound 0.949 µM) is reported as 91.1% [middle of 10 runs] and the viability, T/C (compound 3 µM) is reported as 70.3% [middle of 10 runs]. For the same molecule, the viability, T/C (compound 9.49 µM) was 41.4% [middle of 10 runs], the viability, T/C (compound 30 µM) was 19.1% [middle of 10 runs] and the IC50 (compound alone, run of 02/20/2020) was 6.66 µM [middle of 10 runs].

In the case of `CC(C)CC(NC(=O)C(Cc1ccccc1)NC(=O)c1cnccn1)B(O)O` (centres undefined), the viability, T/C (compound 31.6 pM) is reported as 91.3% and 98.6%, the viability, T/C (compound 0.0001 µM) is reported as 90.4% and 95.9% and the viability, T/C (compound 0.000316 µM) is reported as 98.8% and 103%. The viability, T/C (compound 0.001 µM) was 94.7% and 103%, the viability, T/C (compound 0.00316 µM) was 39.8% and 19.6% and the viability, T/C (compound 0.01 µM) was 0.36% and 0.32%. The IC50 (curve of compound) was 2.55 nM and 2.05 nM.

`CCCS(=O)(=O)Nc1ccc(F)c(C(=O)c2c[nH]c3ncc(-c4ccc(Cl)cc4)cc23)c1F` was tested, and the viability, T/C (compound 0.316 µM) was 115% and 97.9%, the viability, T/C (compound 1 µM) was 107% and 92.3% and the viability, T/C (compound 3.16 µM) was 106% and 99.3%. The viability, T/C (compound 10 µM) was 12.5% and 20.2%, the viability, T/C (compound 31.6 µM) was 103% and 16.7% and the viability, T/C (compound 100 µM) was 83.9% and 100%.
